Target: β-glucosidase B (BglB) (Paenibacillus polymyxa, UniProt P22505)
Experiment: hydrolysis monitored at […] nm, Michaelis-Menten nonlinear fit
Type: biochemical
Settings: 0-100 mM substrate, 15 min

β-glucosidase B (BglB), sequence (P22505 whole entry): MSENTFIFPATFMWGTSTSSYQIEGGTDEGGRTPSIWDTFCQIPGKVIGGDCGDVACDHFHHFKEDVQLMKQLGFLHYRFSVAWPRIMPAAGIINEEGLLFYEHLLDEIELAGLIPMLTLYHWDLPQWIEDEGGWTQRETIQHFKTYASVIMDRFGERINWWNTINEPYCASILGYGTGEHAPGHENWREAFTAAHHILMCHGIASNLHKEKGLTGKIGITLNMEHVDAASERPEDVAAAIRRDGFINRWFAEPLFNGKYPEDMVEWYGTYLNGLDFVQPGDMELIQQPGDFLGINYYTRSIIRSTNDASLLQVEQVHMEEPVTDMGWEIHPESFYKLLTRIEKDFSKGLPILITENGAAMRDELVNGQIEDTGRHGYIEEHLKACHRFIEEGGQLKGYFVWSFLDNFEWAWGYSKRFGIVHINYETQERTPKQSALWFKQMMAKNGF

Km: 5 ± 0.3 mM
Structure (SMILES): O=[N+]([O-])c1ccc(O[C@@H]2O[C@H](CO)[C@@H](O)[C@H](O)[C@H]2O)cc1 [pPNG, 4-nitrophenyl-β-D-glucopyranoside]
